Laboratory results reported in US20240252677A1, “ONE-COMPONENT DELIVERY SYSTEM FOR NUCLEIC ACIDS” (The Trustees of the University of Pennsylvania, priority 2021, published 2024).

Assays:
[1] = test system: lung; test: In vivo mRNA delivery, IVIS imaging of organs: lung; set-up: species or system mice; key to Organs with luminescence: lung: strong: Strong meant the luminescence intensity in that organ was relatively high, compared to other organs; weak: Weak meant the luminescence intensity in that organ was relatively low, compared to other organs; conditions: for Organs with luminescence: lung (weak/strong): Table 14; for Organs with luminescence: lung: Table 17, mice, IVIS, 4-6 h after injection, intensity relative to other organs
Description: (§1) The exposure time was 1 min.
(§2) Tissue luminescence signal was measured on the IVIS imaging system using an exposure time of 60 seconds using medium binning (binning=8) to ensure that the signal obtained was within operative detection range. […] Bioluminescence imaging was performed as described above.
(§3) Tissue luminescence signal was measured on the IVIS imaging system using a certain exposure time (60, 30 or 15 seconds) and medium binning (binning=8) to ensure that the signal obtained was within operative detection range.

[2] = test system: liver; test: In vivo mRNA delivery, IVIS imaging of organs: liver; set-up: species or system mice; key to Organs with luminescence: liver: strong: Strong meant the luminescence intensity in that organ was relatively high, compared to other organs; weak: Weak meant the luminescence intensity in that organ was relatively low, compared to other organs; conditions: for Organs with luminescence: liver (weak/strong): Table 14, imaging 5 h after injection
Description: as §1, §2, §3

[3] = test system: spleen; test: In vivo mRNA delivery, IVIS imaging of organs: spleen; set-up: species or system mice; key to Organs with luminescence: spleen: strong: Strong meant the luminescence intensity in that organ was relatively high, compared to other organs; weak: Weak meant the luminescence intensity in that organ was relatively low, compared to other organs; conditions: for Organs with luminescence: spleen (weak/strong): Table 14; for Organs with luminescence: spleen: Table 17, mice, IVIS, 4-6 h after injection, intensity relative to other organs
Description: as §1, §2, §3

[4] = Dimensions (size, PDI) of DNPs co-assembled from IAJDs and Luc-mRNA by DLS; type: physicochemical
Summary of the method: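 Hydrodynamic size and PDI were read by dynamic light scattering at 23 °C, 175° backscatter, 633 nm. Particles formed by fast injection of ethanolic IAJD stock (80 mg/mL) into nucleoside-modified luciferase mRNA (stock 4.0 mg/mL) in 10 mM acetate pH 4.0, 5 s vortex.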

[5] = test system: BALB/c mice; test: In vivo mRNA delivery in mice with DNPs, whole-body bioluminescence imaging (IVIS); conditions: for Organs with luminescence: Table 13, mice, IVIS imaging 6 h after injection; for In vivo activity (total flux, p/s): Table 19, nonsymmetric IAJDs
Description: as §1
Luminescence characterization for in vivo transfection experiments employed bioluminescence imaging with an IVIS Spectrum imaging system (PerkinElmer, Waltham, MA). Mice were anesthetized with 3% of isoflurane (Piramal Healthcare Limited) and intraperitoneally (i.p.) administered with D-luciferin (Regis Technologies) at a dose of 150 mg/kg of body weight. Ten minutes post administration of D-luciferin, mice were placed on the imaging platform while being maintained on isoflurane via a nose cone and imaged using an exposure time of 60 seconds. […] To quantify luminescent flux, an oval ROI was placed over each organ of interest and analyzed.
as §2
Luminescence Characterization for In Vivo Transfection Experiments: bioluminescence imaging was performed with an IVIS Spectrum imaging system (PerkinElmer, Waltham, MA).

[6] = Stability of DNPs by DLS after storage at 5° C.; type: physicochemical; set-up: key to Original size distribution type (DLS curve) / Size distribution type (DLS curve): U: DLS curve showed unimodal size distribution; B: DLS curve showed bimodal size distribution; M: DLS curve showed multimodal size distribution; conditions: for pH Sample: DNPs: IAJD 4.0 mg/mL + Luc-mRNA 0.1 mg/mL, injection in acetate buffer pH 4.00; for PDI / Size (d, nm) / Original size distribution type (DLS curve): IAJD 4.0 mg/mL + Luc-mRNA 0.1 mg/mL; for PDI / Size (d, nm): acetate buffer; for Original size distribution type (DLS curve): before storage, acetate buffer pH 4.00
Description: The stability of the DNPs as assayed by DLS. All the samples are prepared in acetate buffer. The stabilities of the constructs were ranked: Excellent (in bold)—the original sizes and distribution remains almost the same after storage; Good—the original relatively big sizes became smaller or broad size distribution became narrower; Not stable—the original relatively big sizes or broad size distribution remained almost the similar level, or the original relatively small sizes became bigger or narrow size distribution became broader.

[7] = Table 12, DNPs, IAJD 4 mg/mL + Luc-mRNA 0.10 mg/mL, acetate buffer 10 mM pH 4.0
[8] = Table 13, DNPs, IAJD 4 mg/mL + Luc-mRNA 0.10 mg/mL, acetate buffer pH 4.0
[9] = Table 14, DNPs, IAJD 4 mg/mL + Luc-mRNA 0.10 mg/mL, acetate buffer pH 4.0
[10] = Table 17, DNPs used in vivo, IAJD 4 mg/mL, Luc-mRNA 0.10 mg/mL, acetate pH 4.0
[11] = Table 16, DNPs from IAJD 4 mg/mL and Luc-mRNA 0.10 mg/mL by injection in acetate buffer (10 mM, pH 4.0)

| Compound | Organs with luminescence: lung (weak/strong) ([1]; imaging 5 h after injection) | Organs with luminescence: lung [1] | Organs with luminescence: liver (weak/strong) [2] | Organs with luminescence: spleen (weak/strong) ([3]; imaging 5 h after injection) | Organs with luminescence: spleen [3] | PDI [4, 7] | Size (d, nm) [4, 7] [nm] | PDI [4, 8] | Size (d, nm) [4, 8] [nm] | PDI [4, 9] | Size (d, nm) [4, 9] [nm] | PDI [4, 10] | Size (d, nm) [4, 10] [nm] | In vivo activity (total flux, p/s) [5] | PDI [4, 11] | Size (d, nm) [4, 11] [nm] | pH Sample [6] | Original size distribution type (DLS curve) [6] | further results |
| --- | --- | --- | --- | --- | --- | --- | --- | --- | --- | --- | --- | --- | --- | --- | --- | --- | --- | --- | --- |
| CCCCCCCCCCCCOc1cc(COC(=O)CCCN2CCN(CCO)CC2)cc(OCCCCCCCCCCCC)c1 [IAJD 71, 3,5-Bis(dodecyloxy)benzyl 4-(4-(2-hydroxyethyl)piperazin-1-yl)butanoate] | Lung (weak), | Lung (weak), | liver (weak), | spleen (strong) | spleen (strong) | 0.451 | 237 | 0.451 | 237 | 0.451 | 237 | 0.451 | 237 |  |  |  |  |  | Organs with luminescence: liver ([2]; Table 17, mice, IVIS, 4-6 h after injection, intensity relative to other organs): liver (weak), |
| CCCCCCCCCCCCCCOc1cc(COC(=O)CCCN2CCN(C)CC2)cc(OCCCCCCCCCCCCCC)c1 [IAJD 74, 3,5-Bis(tetradecyloxy)benzyl 4-(4-methylpiperazin-1-yl)butanoate] | Lung (weak), |  | liver (weak), | spleen (strong) |  | 0.317 | 180 | 0.317 | 180 | 0.317 | 180 |  |  |  |  |  |  |  |  |
| CCCCCCCCCCCCCCCCOc1cc(COC(=O)CCCN2CCN(C)CC2)cc(OCCCCCCCCCCCCCCCC)c1 [IAJD 75, 3,5-Bis(hexadecyloxy)benzyl 4-(4-methylpiperazin-1-yl)butanoate] | Lung (weak), |  | liver (weak), | spleen (strong) |  | 0.328 | 235 | 0.328 | 235 | 0.328 | 235 |  |  |  |  |  |  |  |  |
| CCCCC(CC)COc1cc(COC(=O)CCCN2CCN(C)CC2)cc(OCC(CC)CCCC)c1 (centres unmarked) [IAJD 76, 3,5-Bis((2-ethylhexyl)oxy)benzyl 4-(4-methylpiperazin-1-yl)butanoate] | Lung (weak), |  | liver (weak), | spleen (strong) |  | 0.287 | 78 | 0.287 | 78 | 0.287 | 78 |  |  |  |  |  |  |  |  |
| CCCCCCCCCOc1cc(COC(=O)CCCN2CCN(C)CC2)cc(OCCCCCCCCC)c1 [IAJD 77, 3,5-Bis(nonyloxy)benzyl 4-(4-methylpiperazin-1-yl)butanoate] | Lung (weak), |  | liver (weak), | spleen (strong) |  | 0.267 | 110 | 0.267 | 110 | 0.267 | 110 |  |  |  |  |  |  |  |  |
| CCCCC(CC)COc1ccc(COC(=O)CCCN2CCN(C)CC2)cc1OCC(CC)CCCC (centres unmarked) [IAJD 103, 3,4-Bis((2-ethylhexyl)oxy)benzyl 4-(4-methylpiperazin-1-yl)butanoate] |  |  |  |  |  | 0.275 | 88 | 0.275 | 88 | 0.275 | 88 |  |  |  |  |  |  |  | Organs with luminescence [5]: Lung, spleen; Organs with luminescence: lung (weak/strong) ([1]; imaging 6 h after injection): Lung (strong),; Organs with luminescence: spleen (weak/strong) ([3]; imaging 6 h after injection): spleen (weak) |
| CCCCCCCCCCCCCCOc1cc(CNC(=O)CCCN2CCN(C)CC2)cc(OCCCCCCCCCCCCCC)c1 [IAJD 108, N-(3,5-bis(tetradecyloxy)benzyl)-4-(4-methylpiperazin-1-yl)butanamide] |  |  |  |  |  | 0.334 | 214 | 0.334 | 214 | 0.334 | 214 |  |  |  |  |  |  |  | Organs with luminescence [5]: Lung, spleen; Organs with luminescence: lung (weak/strong) ([1]; imaging 6 h after injection): Lung (strong),; Organs with luminescence: spleen (weak/strong) ([3]; imaging 6 h after injection): spleen (weak) |
| CCCCCCCCCCCOc1cc(COC(=O)CCCN2CCN(CCO)CC2)cc(OCCCCCCCCCC)c1 [IAJD 115, 3-(Decyloxy)-5-(undecyloxy)benzyl 4-(4-(2-hydroxyethyl)piperazin-1-yl)butanoate] |  | Lung (weak), |  |  | spleen (strong) |  |  |  |  |  |  | 0.367 | 123 | 4.59 × 10^6 p/s | 0.367 | 123 | 4.44 | (U) | Size distribution type (DLS curve) ([6]; after 70 days at 5° C.): (U); PDI ([6]; after 70 days at 5° C.): 0.383; Size (d, nm) ([6]; after 70 days at 5° C.): 134 nm |
| CCCCCCCCCCCOc1cc(COC(=O)CCCN2CCN(CCO)CC2)cc(OCCCCCCCCC)c1 [IAJD 122, 3-(Nonyloxy)-5-(undecyloxy)benzyl 4-(4-(2-hydroxyethyl)piperazin-1-yl)butanoate] |  | Lung (weak), |  |  | spleen (strong) |  |  |  |  |  |  | 0.337 | 215 | 2.50 × 10^7 p/s | 0.337 | 215 | 4.49 | (B) | Size distribution type (DLS curve) ([6]; after 62 days at 5° C.): (B); PDI ([6]; after 62 days at 5° C.): 0.346; Size (d, nm) ([6]; after 62 days at 5° C.): 192 nm |
| CCCCCCCCCCCCOc1cc(COC(=O)CCCN2CCN(CCO)CC2)cc(OCCCCCCCCCCC)c1 [IAJD 124, 3-(Dodecyloxy)-5-(undecyloxy)benzyl 4-(4-(2-hydroxyethyl)piperazin-1-yl)butanoate] |  | Lung (weak), |  |  | spleen (strong) |  |  |  |  |  |  | 0.280 | 276 | 3.77 × 10^7 p/s | 0.280 | 276 | 4.51 | (U) | Size distribution type (DLS curve) ([6]; after 62 days at 5° C.): (B); PDI ([6]; after 62 days at 5° C.): 0.240; Size (d, nm) ([6]; after 62 days at 5° C.): 284 nm |
| CCCCCCCCCCCCCCCOc1cc(COC(=O)CCCN2CCN(CCO)CC2)cc(OCCCCCCCC)c1 [IAJD 138, 3-(Octyloxy)-5-(pentadecyloxy)benzyl 4-(4-(2-hydroxyethyl)piperazin-1-yl)butanoate] |  | Lung (weak), |  |  | spleen (strong) |  |  |  |  |  |  | 0.305 | 99 | 1.49 × 10^7 p/s | 0.305 | 99 | 4.52 | (U) | Size distribution type (DLS curve) ([6]; after 35 days at 5° C.): (B); PDI ([6]; after 35 days at 5° C.): 0.261; Size (d, nm) ([6]; after 35 days at 5° C.): 112 nm |
